According to patent US20230270139A1, “COMPOSITIONS TO PROMOTE SWALLOWING SAFETY AND EFFICIENCY” (SOCIETE DES PRODUITS NESTLE S.A., priority 2020, published 2023):

Target: TRPA1 (Homo sapiens, UniProt O75762)
Experiment: Synergy of cinnamaldehyde and zinc on pharmacological activity of TRPA1, in vitro
From the text: The trigeminal ingredient may comprise cinnamaldehyde and zinc. The combination provides a minimal flavor impact and is effective to promote a swallowing reflex. Cinnamaldehyde and zinc have a synergy on the pharmacological activity of TRPA1. Using this synergy, the effective amount of cinnamaldehyde can be decreased by supplementing the cinnamaldehyde with small amount of zinc. Consequently, the combination of cinnamaldehyde and zinc can promote a swallowing reflex at concentrations in food that are tolerable both in flavor/taste and in the gastrointestinal tract. Moreover, the synergy only requires a low concentration of zinc (in vitro<1 μM).

Sequence of TRPA1 (O75762 whole entry, species assumed): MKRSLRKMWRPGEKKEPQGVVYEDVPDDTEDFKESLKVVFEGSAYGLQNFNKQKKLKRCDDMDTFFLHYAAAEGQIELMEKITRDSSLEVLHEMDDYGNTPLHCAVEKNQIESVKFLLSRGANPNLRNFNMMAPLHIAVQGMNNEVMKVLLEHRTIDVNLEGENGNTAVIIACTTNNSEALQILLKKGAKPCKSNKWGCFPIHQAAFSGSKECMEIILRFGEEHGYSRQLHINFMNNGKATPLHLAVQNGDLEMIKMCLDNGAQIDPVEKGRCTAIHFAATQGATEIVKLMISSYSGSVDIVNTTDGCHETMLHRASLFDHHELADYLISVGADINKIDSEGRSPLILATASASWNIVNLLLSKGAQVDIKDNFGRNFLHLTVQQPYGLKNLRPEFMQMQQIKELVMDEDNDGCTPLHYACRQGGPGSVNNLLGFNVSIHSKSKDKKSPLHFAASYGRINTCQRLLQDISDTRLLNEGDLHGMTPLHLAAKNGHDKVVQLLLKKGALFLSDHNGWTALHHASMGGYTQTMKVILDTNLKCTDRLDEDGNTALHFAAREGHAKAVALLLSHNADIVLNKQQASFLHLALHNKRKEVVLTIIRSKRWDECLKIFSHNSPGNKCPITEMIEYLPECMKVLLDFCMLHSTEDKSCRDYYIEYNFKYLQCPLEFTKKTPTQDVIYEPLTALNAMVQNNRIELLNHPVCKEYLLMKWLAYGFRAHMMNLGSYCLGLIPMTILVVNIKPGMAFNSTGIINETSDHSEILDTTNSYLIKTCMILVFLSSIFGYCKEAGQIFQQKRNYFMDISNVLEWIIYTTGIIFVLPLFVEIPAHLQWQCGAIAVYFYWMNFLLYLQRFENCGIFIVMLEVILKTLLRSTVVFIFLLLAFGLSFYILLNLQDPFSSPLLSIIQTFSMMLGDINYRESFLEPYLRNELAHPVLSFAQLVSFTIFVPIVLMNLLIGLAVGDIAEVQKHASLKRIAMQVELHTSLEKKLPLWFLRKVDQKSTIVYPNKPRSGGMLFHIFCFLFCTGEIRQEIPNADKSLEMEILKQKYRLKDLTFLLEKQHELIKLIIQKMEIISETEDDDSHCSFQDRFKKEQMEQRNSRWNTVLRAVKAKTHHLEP

[Zn] [zinc]
zinc concentration required for synergy with cinnamaldehyde: < 1 µM
